Source: publication PMC4036227 (Journal of medicinal chemistry, 2013)

Target: WT (S31) M2 proton channel (full length AM2 protein) (Influenza A virus, UniProt P0DOF5)
Test: biochemical
Conditions: read-out: WT % inhibition (TEVC)

WT (S31) M2 proton channel (full length AM2 protein), sequence (P0DOF5 whole entry): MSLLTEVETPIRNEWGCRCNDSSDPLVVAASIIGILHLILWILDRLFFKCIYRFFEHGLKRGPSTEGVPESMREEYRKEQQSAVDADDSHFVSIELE

COC(=O)[C@H](Cc1cnc[nH]1)NCC12CC3CC(CC(C3)C1)C2 [Compound 3]
inhibition at 100 µM: 21%
